In paper PMC7935131 (Blood cancer discovery, 2020):

Columns and labels:
TET2^MT cells = experiment: In vitro toxicity to TET2^MT cells; format: cell-based
[1] = test system: α-KG-dependent histone dioxygenases (H3K4 methylation); experiment: Histone H3K4 methylation in treated cells; format: cell-based

## O=C(O)CCC(O)C(=O)O (centres unmarked) [2HG, 2-hydroxyglutarate]
TET2^MT cells
  LD50 for TET2^MT: in millimolar ranges

## COC(=O)CNC(=O)C(=O)OC [DMOG, methyl 2-[(2-methoxy-2-oxoethyl)amino]-2-oxoacetate]
[1]
  Change in H3K4 methylation: significantly affected
